Measurements: ChEMBL document CHEMBL5316338, “Discovery of Novel PTP1B Inhibitors with Once-Weekly Therapeutic Potential for Type 2 Diabetes: Design, Synthesis, and In Vitro and In Vivo Investigations of BimBH3 Peptide Analogues” (J Med Chem, 2023)
Activity calls are given as the source filed them. The calls are words filed in the database; no cut-off is given here. Square brackets hold non-standard residues; d marks the D form. Peptide text beside a SMILES is read from it. * marks the point of attachment. ξ: configuration not given here. C18 diacid = O=C(O)CCCCCCCCCCCCCCCCC(=O)*; Myristoyl = CCCCCCCCCCCCCC(=O)*; ξR = N=C(N)NCCCC(N)C(=O)O

Legend:
Mus musculus [1] = assay: Antidiabetic activity against C57BL/Ks db/db mouse assessed as reduction in fasting blood glucose level at 1 uM/kg, sc administered once every 2 days for 2 weeks by glucometer analysis; type: functional, organism-based
Homo sapiens = species on record: Homo sapiens; assay: Selectivity index, ratio of IC50 for inhibition of recombinant human TC-PTP (1 to 314 residues) expressed in baculovirus infected insect cells to IC50 for inhibition of N-terminal His-tagged recombinant human PTP1B expressed in Escherichia coli
Mus musculus [2] = assay: Antidiabetic activity against C57BL/Ks db/db mouse assessed as reduction in fasting blood glucose level at 1 uM/kg, sc administered once every 3 days for 2 weeks by glucometer analysis; type: functional, organism-based
Mus musculus [3] = assay: Antidiabetic activity against over-night fasted C57BL/ks db/db mouse assessed as suppression of increased blood glucose concentration at 1 uM/kg, sc pretreated with compound for 4 weeks followed by insulin stimulation and measured for 90 mins by insulin tolerance test; type: functional, organism-based; conditions: time 40410.0 min
Mus musculus [4] = assay: Antidiabetic activity against C57BL/Ks db/db mouse assessed as redcution in fasting blood glucose level at 1 umol/kg, sc administered once a week and measured on day 28 by glucometer analysis (reference value: 32.4 +/- 1.1 […]); type: functional; conditions: dose 1 µmol/kg, time 28 day
[5] = molecular target: T1, Tyrosine-protein phosphatase non-receptor type 1 (Homo sapiens, UniProt P18031); assay: Inhibition of N-terminal His tagged recombinant human PTP1B expressed in Escherichia coli using pNPP as substrate assessed as substrate hydrolysis
T1 sequence (P18031 whole entry): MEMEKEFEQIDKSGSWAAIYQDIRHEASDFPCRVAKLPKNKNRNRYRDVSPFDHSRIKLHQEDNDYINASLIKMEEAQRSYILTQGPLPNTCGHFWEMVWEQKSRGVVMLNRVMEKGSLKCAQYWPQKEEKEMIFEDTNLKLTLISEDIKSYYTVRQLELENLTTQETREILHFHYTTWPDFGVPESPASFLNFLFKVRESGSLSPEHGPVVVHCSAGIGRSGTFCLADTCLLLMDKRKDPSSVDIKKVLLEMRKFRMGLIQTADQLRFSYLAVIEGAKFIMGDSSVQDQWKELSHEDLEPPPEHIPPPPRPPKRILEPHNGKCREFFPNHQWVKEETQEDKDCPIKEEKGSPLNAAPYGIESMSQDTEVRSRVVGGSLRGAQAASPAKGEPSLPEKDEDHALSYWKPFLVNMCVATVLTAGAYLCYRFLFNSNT

[6] = molecular target: T2, Tyrosine-protein phosphatase non-receptor type 1 (Homo sapiens) (UniProt P18031); assay: Inhibition of N-terminal His tagged recombinant human PTP1B expressed in Escherichia coli using pNPP as substrate assessed as substrate hydrolysis at 40 umol/L relative to control; conditions: dose 40.0 µmol/L
T2 sequence (whole entry): T1 sequence (P18031 whole entry)

[7] = Stability of compound assessed as Pepsin (unknown origin) mediated compound degradation by measuring fold change of half-life by HPLC analysis relative to BimBH312-mer peptide; type: ADME; conditions: human
Mus musculus [8] = assay: Antidiabetic activity against C57BL/Ks db/db mouse assessed as redcution in fasting blood glucose level at 1 umol/kg administered subcutaneously and measured immediately by glucometer analysis (reference value: 19.0 +/- 2.7 […]); type: functional; conditions: dose 1 µmol/kg; route sc
Mus musculus [9] = assay: Antidiabetic activity against C57BL/Ks db/db mouse assessed as reduction in fasting blood glucose level at 1 uM/kg, sc administered once daily and measured on day 8 by glucometer analysis; type: functional, organism-based; conditions: time 8.0 day
[10] = molecular target: T3, Tyrosine-protein phosphatase non-receptor type 2 (Homo sapiens, UniProt P17706); assay: Inhibition of recombinant human TC-PTP (1 to 314 residues) expressed in baculovirus infected insect cells using pNPP as substrate assessed as substrate hydrolysis; set-up: species or system Insect cell
T3 sequence (P17706 whole entry): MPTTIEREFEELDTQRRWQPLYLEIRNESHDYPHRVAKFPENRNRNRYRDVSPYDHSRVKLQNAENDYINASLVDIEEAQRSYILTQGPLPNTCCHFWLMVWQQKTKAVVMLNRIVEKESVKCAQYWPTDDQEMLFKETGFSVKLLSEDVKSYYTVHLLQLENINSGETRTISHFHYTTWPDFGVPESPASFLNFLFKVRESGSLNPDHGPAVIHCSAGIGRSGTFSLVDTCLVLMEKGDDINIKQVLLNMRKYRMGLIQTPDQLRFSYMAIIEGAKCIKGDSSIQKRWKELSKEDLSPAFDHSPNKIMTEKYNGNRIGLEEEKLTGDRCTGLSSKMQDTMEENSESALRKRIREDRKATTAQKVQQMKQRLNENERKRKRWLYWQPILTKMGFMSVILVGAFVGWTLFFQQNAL

Row | IC50 [5] [nM] | inhibition [6] [%] | fold change (FC) [7] | IC50 [10] [µM] | Compound | Activity (Mus musculus [1]) | Ratio IC50 (Homo sapiens) | Activity (Mus musculus [2]) | Activity (Mus musculus [3]) | Fasting blood glucose level (Mus musculus [4]) [mmol/L] | Fasting blood glucose level (Mus musculus [8]) [mmol/L] | Activity (Mus musculus [9])
1 | 385 | > 50 | 307.7 | > 50 | CC[C@H](C)[C@H](NC(=O)CCCCCCCCCCCCCCCCC(=O)O)C(=O)N[C@@H](C)C(=O)N[C@@H](CCC(N)=O)C(=O)N[C@@H](CCC(=O)O)C(=O)N[C@@H](CC(C)C)C(=O)N[C@@H](CCCNC(=N)N)C(=O)NC(CCCNC(=N)N)C(=O)N[C@H](C(=O)NCC(=O)N[C@@H](CC(=O)O)C(=O)N[C@@H](CCC(=O)O)C(=O)N[C@@H](Cc1ccccc1)C(=O)O)[C@@H](C)CC (stereo not given in full) ({C18 diacid}-IAQELR[ξR]IGDEF-OH) | Active | > 130 | Active | Active | 18.4 | 19.8 | Active
2 | 263 | > 50 | 29.5 | > 50 | CCCCCCCCCCCCCC(=O)N[C@H](C(=O)N[C@@H](C)C(=O)N[C@@H](CCC(N)=O)C(=O)N[C@@H](CCC(=O)O)C(=O)N[C@@H](CC(C)C)C(=O)N[C@@H](CCCNC(=N)N)C(=O)NC(CCCNC(=N)N)C(=O)N[C@H](C(=O)NCC(=O)N[C@@H](CC(=O)O)C(=O)N[C@@H](CCC(=O)O)C(=O)N[C@@H](Cc1ccccc1)C(=O)O)[C@@H](C)CC)[C@@H](C)CC (stereo not given in full) (Myristoyl-IAQELR[ξR]IGDEF-OH) | Active | > 190 | – | Active | 15.6 | 20.9 | –
